# Experimental data as given in US20200338045A1, “ISOINDOLINE COMPOSITIONS AND METHODS FOR TREATING NEURODEGENERATIVE DISEASE” (priority 2017, published 2020).
# Tested on: CSF proteins
# Test: LC/MSMS protein expression in CSF (COG0102)
# Type: in vivo, human
# Description: Plasma and CSF protein expression were measured by LC/MSMS in samples drawn prior to dosing (Day 0) and at end of dosing (Day 28) and were compared within each patient and between dosing groups.
# This trial (ClinicalTrials.gov NCT02907567) was a randomized, double-blind, placebo-controlled clinical trial in mild to moderate Alzheimer's patients (MMSE 18-26) (See FIG. 1 for clinical trial design). The trial was conducted at six sites in Australia. Patients were randomized into placebo (n=5) or CT1812-treated groups: 90 mg (n=4), 280 mg (n=5) or 560 mg (n=5) and treated once daily for 28 days. Clinical chemistry was done at Sydpath (Sydney, AU). Pharmacokinetics were done at CPR Pharma Services (Adelaide, AU). Cerebrospinal fluid samples were taken at screening and day 21-28 of treatment and aliquoted. Plasma samples were taken at screening or Day 1 (one sample) and day 14-28, then spun down to separate plasma and aliquoted. One set of CSF samples was analyzed for Alzheimer's disease biomarkers; protein measurements (Aβ42, A1340, total tau, tau phosphorylated at threonine 181 (phosphorylated tau), NFL and neurogranin) were performed using commercially available ELISA assays from Fujirebio according to the manufacturer's instructions (INNOTEST β-AMYLOID(1-42), INNOTEST β-AMYLOID(1-40), INNOTEST hTau Ag, INNOTEST PHOSPHO-TAU(181P), Uman Diagnostics NFL assay). Neurogranin was measured with a sandwich ELISA method using antibodies Ng2 and Ng22 developed at the University of Gotteborg (Kvartsberg et al. 2015). Identical aliquots of CSF, and plasma were analyzed for protein expression changes via LC/MSMS at Caprion (see below).
# Matched screening and day 28 plasma and CSF samples were analyzed by LC/MSMS at Caprion Biosciences Inc. Plasma was depleted of high and medium abundance proteins using a commercial immunoaffinity column, IgY14-Supermix (Sigma). CSF was depleted of only 14 high abundance proteins using MARS-14 (Agilent). All samples were digested with trypsin and plasma samples were fractionated by strong cation exchange chromatography (3 fractions). Both CSF and plasma samples were analyzed using a NanoAcquity UPLC coupled to a Q Exactive MS. […] The 12 most intense peaks per survey scan with charge states 2-8 fragmented and scanned with a mass range from 200 to 2000 m/z at a resolution of 17,500. Raw spectrometer data files for each LC-MS run were aligned independently using Elucidator software (Rosetta Biosoftware). The MS/MS spectra were matched to corresponding peptide sequences found in the Uniprot Human protein database (January 2017) using Mascot software, allowing for up to 2 missed cleavages, a peptide tolerance of 20 ppm, and an MS/MS tolerance of 0.05 Da. Outlier detection was performed by determining the average log-intensity of all isotope groups (IG) over injection order for all samples. Samples with an average value greater than 2 standard deviations from the mean were flagged for investigation. Following data transformation and normalization, expression analysis of the identified isotope groups was performed and the statistical significance of each comparison was assessed with a parametric, linear mixed model (LMM) and a non-parametric Wilcoxon ranked test (ranked p-values). Expression analysis was also performed at the peptide and protein levels, which used the same methodology as above, but applied to peptide/protein intensities, derived by rolling-up the corresponding isotope group intensities. Isotope groups not detected in at least half of the samples in either of the two groups being compared were not used for the roll-up.
# Table 5 lists 30 proteins that were detected with at least 20% change in placebo vs. treated 28 days vs screening. The following values are reported for each statistical analysis performed: FC: Fold change calculated from the protein normalized intensity. FC>10 or <0.1 are unusually large and may be artifacts. […]
# [1] = 28 days vs screening, fold change
smiles,measurement,setting,value
CC(C)(C)Oc1cc(CCC(C)(C)N2Cc3ccc(S(C)(=O)=O)cc3C2)ccc1O [CT1812],"Afamin, % change treated vs placebo",,−19%
same,"B3GNT9, % change treated vs placebo",,65%
same,"CD14, % change treated vs placebo",,20%
same,"Contactin 1, % change treated vs placebo",,−23%
same,"EphA4, % change treated vs placebo",,−7%
same,"FLNA, % change treated vs placebo",,−51%
same,"PDIA1, % change treated vs placebo",,21%
same,"PDIA6, % change treated vs placebo",,44%
same,"ROBO4, % change treated vs placebo",,62%
same,"SERPINA4, % change treated vs placebo",,−26%
same,"Synaptotagmin, % change treated vs placebo",,−59%
same,"Tenascin C, % change treated vs placebo",,−10%
same,"Synaptotagmin-1 expression decreased, CT1812-treated vs. placebo",28 days,63%
same,"AFM, FC (Treated)",[1],0.94
same,"ANGPTL2, FC (Treated)",[1],0.80
same,"CAMK2D, FC (Treated)",[1],1.04
same,"CD14, FC (Treated)",[1],1.18
same,"CNTN1, FC (Treated)",[1],0.97
same,"EFNB1, FC (Treated)",[1],0.97
same,"EPHA4, FC (Treated)",[1],0.94
same,"FGFR3, FC (Treated)",[1],1.12
same,"GMFB, FC (Treated)",[1],1.04
same,"GNPTG, FC (Treated)",[1],1.18
same,"HLA-H, FC (Treated)",[1],1.22
same,"ICAM2, FC (Treated)",[1],1.11
same,"LILRB4, FC (Treated)",[1],1.11
same,"MBL2, FC (Treated)",[1],0.75
same,"MDGA2, FC (Treated)",[1],1.01
same,"NPPC, FC (Treated)",[1],0.90
same,"P4HB, FC (Treated)",[1],1.10
same,"PDGFA, FC (Treated)",[1],1.15
same,"PDIA6, FC (Treated)",[1],1.15
same,"RBP4, FC (Treated)",[1],0.82
same,"ROBO1, FC (Treated)",[1],0.96
same,"ROBO4, FC (Treated)",[1],1.22
same,"SAA4, FC (Treated)",[1],1.17
same,"SEMA3F, FC (Treated)",[1],1.40
same,"SERPINA4, FC (Treated)",[1],0.88
same,"SMPDL3B, FC (Treated)",[1],0.97
same,"SYT1, FC (Treated)",[1],0.78
same,"TNC, FC (Treated)",[1],1.04
same,"TPI1, FC (Treated)",[1],0.90
same,"YWHAB, FC (Treated)",[1],0.90
same,"AFM, FC (Treated vs. Placebo)","28 days, fold change",0.84
same,"ANGPTL2, FC (Treated vs. Placebo)","28 days, fold change",0.69
same,"CAMK2D, FC (Treated vs. Placebo)","28 days, fold change",1.22
same,"CD14, FC (Treated vs. Placebo)","28 days, fold change",1.20
same,"CNTN1, FC (Treated vs. Placebo)","28 days, fold change",0.81
same,"EFNB1, FC (Treated vs. Placebo)","28 days, fold change",0.93
same,"EPHA4, FC (Treated vs. Placebo)","28 days, fold change",0.93
same,"FGFR3, FC (Treated vs. Placebo)","28 days, fold change",1.83
same,"GMFB, FC (Treated vs. Placebo)","28 days, fold change",1.41
same,"GNPTG, FC (Treated vs. Placebo)","28 days, fold change",1.26
same,"HLA-H, FC (Treated vs. Placebo)","28 days, fold change",1.37
same,"ICAM2, FC (Treated vs. Placebo)","28 days, fold change",1.23
same,"LILRB4, FC (Treated vs. Placebo)","28 days, fold change",1.25
same,"MDGA2, FC (Treated vs. Placebo)","28 days, fold change",0.71
same,"NPPC, FC (Treated vs. Placebo)","28 days, fold change",0.91
same,"P4HB, FC (Treated vs. Placebo)","28 days, fold change",1.21
same,"PDGFA, FC (Treated vs. Placebo)","28 days, fold change",1.27
same,"PDIA6, FC (Treated vs. Placebo)","28 days, fold change",1.44
same,"RBP4, FC (Treated vs. Placebo)","28 days, fold change",0.81
same,"ROBO1, FC (Treated vs. Placebo)","28 days, fold change",0.82
same,"ROBO4, FC (Treated vs. Placebo)","28 days, fold change",1.62
same,"SAA4, FC (Treated vs. Placebo)","28 days, fold change",1.35
same,"SEMA3F, FC (Treated vs. Placebo)","28 days, fold change",1.58
same,"SERPINA4, FC (Treated vs. Placebo)","28 days, fold change",0.79
same,"SMPDL3B, FC (Treated vs. Placebo)","28 days, fold change",1.24
same,"SYT1, FC (Treated vs. Placebo)","28 days, fold change",0.63
same,"TNC, FC (Treated vs. Placebo)","28 days, fold change",0.91
same,"TPI1, FC (Treated vs. Placebo)","28 days, fold change",0.87
same,"YWHAB, FC (Treated vs. Placebo)","28 days, fold change",0.81
same,"MBL2, FC (Treated vs. Placebo)","28 days, fold change, FC>10 may be artifacts",>10
same,"Afamin, With CT1812",direction of change,significantly decreased and ↓*
same,"B3GNT9, With CT1812",direction of change,dose dependently increased and ↑
same,"CD14, With CT1812",direction of change,significantly increased and ↑*
same,"Contactin 1, With CT1812",direction of change,significantly reduced and ↓*
same,"EphA4, With CT1812",direction of change,↓*
same,"FLNA, With CT1812",direction of change,trend for reduction and ↓
same,"PDIA1, With CT1812",direction of change,significantly increased and ↑*
same,"PDIA6, With CT1812",direction of change,significantly increased and ↑*
same,"ROBO4, With CT1812",direction of change,↑*
same,"SERPINA4, With CT1812",direction of change,significantly reduced and ↓*
same,"Synaptotagmin, With CT1812",direction of change,significantly decreased and reduction and decreased and ↓*
same,"Tenascin C, With CT1812",direction of change,↓*
same,"Afamin, % change baseline treated",treated group vs baseline,−7%
same,"B3GNT9, % change baseline treated",treated group vs baseline,55%
same,"CD14, % change baseline treated",treated group vs baseline,18%
same,"Contactin 1, % change baseline treated",treated group vs baseline,−3%
same,"EphA4, % change baseline treated",treated group vs baseline,−6%
same,"FLNA, % change baseline treated",treated group vs baseline,−26%
same,"PDIA1, % change baseline treated",treated group vs baseline,10%
same,"PDIA6, % change baseline treated",treated group vs baseline,15%
same,"ROBO4, % change baseline treated",treated group vs baseline,22%
same,"SERPINA4, % change baseline treated",treated group vs baseline,−13%
same,"Synaptotagmin, % change baseline treated",treated group vs baseline,−28%
same,"Tenascin C, % change baseline treated",treated group vs baseline,4%
